Measurements as given in patent publication US10143666B2, “Small molecule inhibitors targeting CAG-repeat RNA toxicity in polyglutamine diseases” (The Chinese University of Hong Kong, priority 2015, dated 2018).
Several values for one entry are separate records, joined by “and”; a condition that tells them apart may be missing. Identical values can stand only once.

What was measured:
[1] = system: EGFPCAG78 RNA expressing SK-N-MC cells; experiment: LDH cytotoxicity assay, EGFPCAG78 RNA expressing SK-N-MC cells; assay type: cell-based, human
Procedure: (§1) It was next investigated whether DB213 could mitigate expanded CAG-repeat RNA-mediated toxicity in SK-N-MC human neuronal cell. […] Taken together, DB213 could suppress the expanded CAG RNA-mediated but not polyQ protein-mediate toxicity in human neuronal cell.
(§2) SK-N-MC human neuronal cells were seeded on a 24-well plate and lactate dehydrogenase enzyme activity in the cell culture medium was measured 72 hours post-transfection and drugs treatment using the Cytotox 96 non-radioactive cytotoxicity assay (Promega).

CUG-repeat RNA = settings: reported previously; cited from earlier work
[2] = system: pre-45s rRNA in EGFPCAG27 RNA expressing cell; experiment: pre-45s rRNA real-time PCR, EGFPCAG27 RNA expressing cells; assay type: cell-based, human
Procedure: (§3) Nucleolar stress and a chain of downstream events were triggered and ultimately led to apoptosis^7.
(§4) RNA was extracted from cells by Trizol reagent (Life Technologies), and 1 μg of purified RNA was then used for reverse-transcription using the ImPromII™ Reverse Transcription System (Promega). Random hexamer (Roche) was used as primers in reverse transcription. Taqman gene expression assays were performed on an ABI 7500 Real-time PCR system and data were analyzed as previously described^7. The following probes were used: pre-45s rRNA (Assay ID: AILJIZM) and actin (Assay ID: Hs99999903_m1).

[3] = system: pre-45s rRNA in EGFPCAG78 RNA expressing SK-N-MC cells; experiment: pre-45s rRNA real-time PCR, EGFPCAG78 RNA expressing SK-N-MC cells; assay type: cell-based, human
Procedure: as §3, §4

Body weight in R6/2 mice = settings: for Body weight (individual mouse): in g (unit assumed); for Body weight, differences between treatment groups: any time point, p>0.05
Procedure: The body weights were measured daily.

CGG90 fly = experiment: Neurodegeneration in CGG90 fly (Fragile X syndrome model); assay type: in vivo, Drosophila
Procedure: Other disease fly models, including α-synuclein (Parkinson's disease)^13, CTG480 (Myotonic dystrophy 1)^14 and CGG90 (Fragile X syndrome)^15 were employed to address the specificity of DB213 on trinucleotide repeat expansion RNA toxicity.
(§5) Flies were raised at 21.5° C. on cornmeal medium supplemented with dry yeast. Pseudopupil assay was performed on 12 day-old adult flies as mentioned previously^18. Images were captured by SPOT Insight CCD camera controlled by the SPOT Advanced software (Diagnostic instruments Inc.). External eye assay was performed on 12 day-old adult flies by Olympus SZX-12 stereomicroscope. Eye images were captured using a SPOT Insight CCD camera (Diagnostic instruments Inc.).

[4] = system: primary rat cortical neurons; experiment: Cytotoxicity test on primary rat cortical neurons; assay type: cell-based
Text: To address the specificity of DB213 on expanded CAG-repeat RNA toxicity in vitro, another small molecule compound, C4G2, labeled as ligand 3 in the study^17, was employed.

DsRedCAG0 control fly = system: DsRedCAG0 control fly; design: species or system Drosophila; settings: in vivo
Text: The synthesis of DB213 was described in Marcheschi et al. (Scheme 1)^12, see FIG. 1. By using a MJD (one kind of polyQ diseases) Drosophila disease model, the inventors established an effective screening platform to test a series of synthesized small molecules for their activity to suppress polyQ-induced neurodegeneration. […] To test whether the compounds acted on CAG-repeat RNA level, another Drosophila model, DsRedCAG100^6, was employed. […] Therefore, DB213 was confirmed to modulate expanded CAG-repeat RNA-mediated toxicity in vivo.
as §5

trMJDCAA/G78 cells = experiment: LDH cytotoxicity assay, trMJDCAA/G78 cell model; assay type: cell-based, human; settings: only trMJDQ78 protein toxicity
Procedure: as §1, §2

r(CAG)7 RNA = experiment: Isothermal titration calorimetry (ITC) binding assay; settings: 25° C., DB213 800 μM titrated to r(CAG)7 RNA 40 μM, one binding site model
Procedure: It was next investigated that whether DB213 would interact physically with CAG-repeat RNA and sequestrate the toxic RNA species from their pathogenic pathway. Isothermal titration calorimetry (ITC)^17 was adopted to identify the RNA-binding property of DB213.
Experiments were carried out using a MicroCal iTC200 isothermal titration calorimeter (GE Healthcare) at 25° C. Data were analyzed using the Origin® scientific plotting software version 7 (Microcal Software Inc.). DB213 (800 μM) was titrated to synthesized r(CAG)7 RNA (40 μM). The thermal titration data were fitted to the ‘one binding site model’ to determine the dissociation constant (KD).

CN(C)CCCNC(=N)c1ccc(C(=N)NCCCN(C)C)cc1.Cl.Cl.Cl.Cl [DB213]
Cell death induced by EGFPCAG78 RNA (LDH assay) ([1]; 72 hours post-transfection and treatment): could be suppressed
IC50 ([1]; read-out: IC50, inhibition of cell death induced by EGFPCAG78 RNA (LDH enzyme activity reduced by 50%)): 6.9 ± 1.8 nM
Binding to CUG repeats / CUG-repeat RNA (CUG-repeat RNA): did not bind to CUG repeats
pre-45s rRNA transcription level [2]: did not alter the pre-45s rRNA transcription level
pre-45s rRNA transcription level [3]: could restore the pre-45s rRNA transcription level
Body weight (individual mouse) (Body weight in R6/2 mice; i.n. daily 50 mg/kg, Day 1, listed as Compound-5, 50 mg/kg): 20.9 and 20 and 23.9
Body weight (group Mean) (Body weight in R6/2 mice; i.n. daily 50 mg/kg, Day 2): 21.1 g
Body weight (individual mouse) (Body weight in R6/2 mice; i.n. daily 50 mg/kg, Day 2, listed as Compound-5, 50 mg/kg): 20.6 and 17.9 and 17.5 and 25.3
Body weight (individual mouse) (Body weight in R6/2 mice; i.n. daily 50 mg/kg, Day 3, listed as Compound-5, 50 mg/kg): 21.1 and 24 and 26.3
Body weight (group Mean) (Body weight in R6/2 mice; i.n. daily 50 mg/kg, Day 4): 22 g
Body weight (individual mouse) (Body weight in R6/2 mice; i.n. daily 50 mg/kg, Day 4, listed as Compound-5, 50 mg/kg): 20.1 and 26.3
Body weight (individual mouse) (Body weight in R6/2 mice; i.n. daily 50 mg/kg, Day 5, listed as Compound-5, 50 mg/kg): 19.9 and 17.4 and 23.6 and 20.7 and 25.6
Body weight (group Mean) (Body weight in R6/2 mice; i.n. daily 50 mg/kg, Day 6): 21.5 g
Body weight (individual mouse) (Body weight in R6/2 mice; i.n. daily 50 mg/kg, Day 6, listed as Compound-5, 50 mg/kg): 19.9 and 17.6 and 21.5 and 25
Body weight (individual mouse) (Body weight in R6/2 mice; i.n. daily 50 mg/kg, Day 7, listed as Compound-5, 50 mg/kg): 20.4 and 17.9 and 23.5 and 21.5 and 26.3
Body weight (individual mouse) (Body weight in R6/2 mice; i.n. daily 100 mg/kg, Day 1, listed as Compound-5, 100 mg/kg): 19 and 20.6 and 23.5 and 23.2 and 23.7
Body weight (group Mean) (Body weight in R6/2 mice; i.n. daily 100 mg/kg, Day 2): 21 g
Body weight (individual mouse) (Body weight in R6/2 mice; i.n. daily 100 mg/kg, Day 2, listed as Compound-5, 100 mg/kg): 20.3 and 19.2 and 23.2 and 20.7 and 23.6
Body weight (individual mouse) (Body weight in R6/2 mice; i.n. daily 100 mg/kg, Day 3, listed as Compound-5, 100 mg/kg): 19.3 and 20.7 and 19.8 and 23.9 and 21.1
Body weight (group Mean) (Body weight in R6/2 mice; i.n. daily 100 mg/kg, Day 4): 21.6 g
Body weight (individual mouse) (Body weight in R6/2 mice; i.n. daily 100 mg/kg, Day 4, listed as Compound-5, 100 mg/kg): 19.4 and 19.8 and 24 and 21.1 and 24.4
Body weight (individual mouse) (Body weight in R6/2 mice; i.n. daily 100 mg/kg, Day 5, listed as Compound-5, 100 mg/kg): 20.6 and 19.4 and 23.6 and 20.7 and 23.9
Body weight (group Mean) (Body weight in R6/2 mice; i.n. daily 100 mg/kg, Day 6): 21.5 g
Body weight (individual mouse) (Body weight in R6/2 mice; i.n. daily 100 mg/kg, Day 6, listed as Compound-5, 100 mg/kg): 19.8 and 23.6 and 21.1 and 24
Body weight (group Mean) (Body weight in R6/2 mice; i.n. daily 100 mg/kg, Day 7): 21.1 g
Body weight (individual mouse) (Body weight in R6/2 mice; i.n. daily 100 mg/kg, Day 7, listed as Compound-5, 100 mg/kg): 19 and 19.4 and 24.7
Body weight (group Mean) (Body weight in R6/2 mice; i.n. daily 200 mg/kg, Day 1): 20.9 g
Body weight (individual mouse) (Body weight in R6/2 mice; i.n. daily 200 mg/kg, Day 1, listed as Compound-5, 200 mg/kg): 19.9 and 23.6
Body weight (individual mouse) (Body weight in R6/2 mice; i.n. daily 200 mg/kg, Day 2, listed as Compound-5, 200 mg/kg): 23.5
Body weight (group Mean) (Body weight in R6/2 mice; i.n. daily 200 mg/kg, Day 3): 20.4 g
Body weight (individual mouse) (Body weight in R6/2 mice; i.n. daily 200 mg/kg, Day 3, listed as Compound-5, 200 mg/kg): 18.3 and 19.2 and 21.5
Body weight (individual mouse) (Body weight in R6/2 mice; i.n. daily 200 mg/kg, Day 4, listed as Compound-5, 200 mg/kg): 17.9 and 19
Body weight (group Mean) (Body weight in R6/2 mice; i.n. daily 200 mg/kg, Day 5): 20.7 g
Body weight (individual mouse) (Body weight in R6/2 mice; i.n. daily 200 mg/kg, Day 5, listed as Compound-5, 200 mg/kg): 18.2 and 18.3 and 22.7
Body weight (individual mouse) (Body weight in R6/2 mice; i.n. daily 200 mg/kg, Day 6, listed as Compound-5, 200 mg/kg): 18.4 and 23.1
Body weight (group Mean) (Body weight in R6/2 mice; i.n. daily 200 mg/kg, Day 7): 20.4 g
Body weight (group Mean) (Body weight in R6/2 mice; i.n. daily 300 mg/kg, Day 1): 21.6 g
Body weight (group Mean) (Body weight in R6/2 mice; i.n. daily 300 mg/kg, Day 2): 20.2 g
Body weight (group Mean) (Body weight in R6/2 mice; i.n. daily 300 mg/kg, Day 3): 19.5 g
Body weight (group Mean) (Body weight in R6/2 mice; i.n. daily 300 mg/kg, Day 6): 20.1 g
Body weight (group Mean) (Body weight in R6/2 mice; i.n. daily 300 mg/kg, Day 7): 20.4 g
Body weight, differences between treatment groups (Body weight in R6/2 mice; i.n. daily 50-300 mg/kg): no differences in body weight
Body weight (group Mean) (Body weight in R6/2 mice; i.v. 50 mg/kg (treatment discontinued), Day 2, n 1): 16.1 g
Body weight (group Mean) (Body weight in R6/2 mice; i.v. 50 mg/kg (treatment discontinued), Day 3, n 1): 16.3 g
Body weight (group Mean) (Body weight in R6/2 mice; i.v. 50 mg/kg (treatment discontinued), Day 4, n 1): 16.2 g
Body weight (group Mean) (Body weight in R6/2 mice; i.v. 50 mg/kg (treatment discontinued), Day 5, n 1): 16.8 g
Body weight (group Mean) (Body weight in R6/2 mice; i.v. 50 mg/kg (treatment discontinued), Day 6 (not measured, replaced by mean of days 5 and 7), n 1): 16.8 g
Body weight (group Mean) (Body weight in R6/2 mice; i.v. 50 mg/kg (treatment discontinued), Day 7, n 1): 16.8 g
Body weight (group Mean) (Body weight in R6/2 mice; i.v. twice-a-week 12.5 mg/kg, Day 3): 22 g
Body weight (group Mean) (Body weight in R6/2 mice; i.v. twice-a-week 12.5 mg/kg, Day 4): 22 g
Body weight (group Mean) (Body weight in R6/2 mice; i.v. twice-a-week 12.5 mg/kg, Day 6 (not measured, replaced by mean of days 5 and 7)): 22.4 g
Body weight (group Mean) (Body weight in R6/2 mice; i.v. twice-a-week 12.5 mg/kg, Day 7): 22.6 g
Body weight (group Mean) (Body weight in R6/2 mice; i.v. twice-a-week 25 mg/kg, Day 2): 21 g
Body weight (group Mean) (Body weight in R6/2 mice; i.v. twice-a-week 25 mg/kg, Day 3): 21.6 g
Body weight (group Mean) (Body weight in R6/2 mice; i.v. twice-a-week 25 mg/kg, Day 4): 21.6 g
Body weight (group Mean) (Body weight in R6/2 mice; i.v. twice-a-week 25 mg/kg, Day 7): 22 g
Body weight, differences between treatment groups (Body weight in R6/2 mice; i.v. twice-a-week 12.5 and 25 mg/kg): no differences in body weight
Suppression of neurodegeneration (CGG90 fly): did not suppress the neurodegeneration
No observed cytotoxicity up to ([4]; cellular toxicity): up to 12.8 μM
Concentration up to which viability of wild-type primary neurons was not compromised ([4]; primary rat cortical neurons): up to 12,800 nM
Dominant toxic effect in control fly (DsRedCAG0 control fly): did not show any dominant toxic effect
Cell death level (LDH assay) (trMJDCAA/G78 cells): did not alter the cell death level
Kd (r(CAG)7 RNA): 1530 ± 250 nM
